Results from the CheMixHub viscosity set.

Test: xn = mol fraction of the nth substance listed

CC=CC(=O)O + c1ccccc1
viscosity [mPa·s], 101 kPa
Conditions | 298.15 K | 303.15 K | 313.15 K | 323.15 K
x1 = 0.0503 | 0.6275 | 0.5854 | 0.5132 | 0.4526
x1 = 0.102 | 0.6591 | 0.6129 | 0.5349 | 0.472
x1 = 0.1492 | 0.6902 | 0.6364 | 0.5555 | 0.4889

CCCCCCN + c1ccccc1
303.15 K, 101 kPa
Conditions | viscosity [mPa·s]
x2 = 0.105 | 0.6977
x2 = 0.2983 | 0.645
x2 = 0.4918 | 0.6006
x2 = 0.5946 | 0.5814
x2 = 0.6955 | 0.5639
x2 = 0.7954 | 0.5506
x2 = 0.8997 | 0.549

CNc1ccccc1 + c1ccccc1
298.15 K, 101 kPa
Conditions | viscosity [mPa·s]
x2 = 0.069 | 1.851
x2 = 0.11 | 1.728
x2 = 0.17 | 1.601
x2 = 0.264 | 1.433
x2 = 0.376 | 1.226
x2 = 0.387 | 1.202
x2 = 0.428 | 1.156
x2 = 0.513 | 1.055
x2 = 0.582 | 0.966
x2 = 0.697 | 0.842
x2 = 0.802 | 0.747
x2 = 0.852 | 0.71
x2 = 0.93 | 0.656

OC(C(F)(F)F)C(F)(F)F + c1ccccc1
viscosity [mPa·s], 101 kPa
Conditions | x1 = 0.04927 | x1 = 0.1096 | x1 = 0.1764 | x1 = 0.2481 | x1 = 0.3333 | x1 = 0.4173 | x1 = 0.5478 | x1 = 0.6489 | x1 = 0.8774
298.15 K | 0.595 | 0.589 | 0.583 | 0.585 | 0.612 | 0.648 | 0.743 | 0.834 | 1.216
313.15 K | 0.481 | 0.475 | 0.466 | 0.471 | 0.486 | 0.508 | 0.561 | 0.617 | 0.818
323.15 K | 0.425 | 0.423 | 0.412 | 0.414 | 0.425 | 0.441 | 0.482 | 0.521 | 0.658

Oc1ccccc1 + c1ccccc1
Conditions | viscosity [mPa·s]
293.15 K, 101 kPa, x1 = 0.0507 | 0.683
293.15 K, 101 kPa, x1 = 0.0831 | 0.724
293.15 K, 101 kPa, x1 = 0.1719 | 0.865
293.15 K, 101 kPa, x1 = 0.2846 | 1.126
293.15 K, 101 kPa, x1 = 0.3763 | 1.401
293.15 K, 101 kPa, x1 = 0.4837 | 1.911
293.15 K, 101 kPa, x1 = 0.5924 | 2.642
293.15 K, 101 kPa, x1 = 0.7038 | 3.811
293.15 K, 101 kPa, x1 = 0.8043 | 5.35
298.15 K, 101.33 kPa, x1 = 0.083 | 0.6592
298.15 K, 101.33 kPa, x1 = 0.181 | 0.8516
298.15 K, 101.33 kPa, x1 = 0.2 | 0.841
298.15 K, 101.33 kPa, x1 = 0.239 | 0.9218
298.15 K, 101.33 kPa, x1 = 0.279 | 1.037
298.15 K, 101.33 kPa, x1 = 0.37 | 1.157
298.15 K, 101.33 kPa, x1 = 0.478 | 1.696
298.15 K, 101.33 kPa, x1 = 0.5 | 1.711
298.15 K, 101.33 kPa, x1 = 0.522 | 1.849
298.15 K, 101.33 kPa, x1 = 0.619 | 2.54
298.15 K, 101.33 kPa, x1 = 0.658 | 2.783
298.15 K, 101.33 kPa, x1 = 0.692 | 3.172
298.15 K, 101.33 kPa, x1 = 0.762 | 3.936
298.15 K, 101.33 kPa, x1 = 0.786 | 4.424
323.15 K, 101.33 kPa, x1 = 0.2 | 0.568
323.15 K, 101.33 kPa, x1 = 0.5 | 0.968

O=C1NC(=O)c2ccccc21 + c1ccncc1
298.15 K, 101 kPa
Conditions | viscosity [mPa·s]
x1 = 0.0278 | 0.9878
x1 = 0.06788 | 1.182

Oc1ccccc1 + c1ccncc1
viscosity [mPa·s], 101 kPa
Conditions | 293.15 K | 303.15 K | 313.15 K
x1 = 0.0707 | 1.109 | 0.94 | 0.828
x1 = 0.1391 | 1.321 | 1.106 | 0.965
x1 = 0.213 | 1.597 | 1.339 | 1.152
x1 = 0.2888 | 2.01 | 1.634 | 1.389
x1 = 0.349 | 2.411 | 1.963 | 1.631
x1 = 0.4283 | 3.215 | 2.515 | 2.042
x1 = 0.5063 | 4.37 | 3.245 | 2.56
x1 = 0.5971 | 5.945 | 4.29 | 3.245
x1 = 0.6675 | 7.48 | 5.17 | 3.8
x1 = 0.7481 | 9.07 | 6.04 | 4.305
x1 = 0.8284 | 10.04 | 6.625 | 4.59
x1 = 0.9114 | 10.72 | 6.915 | 4.705
